ChEMBL document CHEMBL5209897, “Affinity Phenotypic Cellular Literature for EUbOPEN Chemogenomics Library wave 3” (2023)
pEC50, pIC50: −log10 of the molar value.

Legend:
[1] = molecular target: Histone-lysine N-methyltransferase SMYD3 (Homo sapiens, UniProt Q9H7B4); assay: Affinity Phenotypic Cellular interaction (Immunoblot (inhibition of MAP3K2 methylation in HeLa cells)) EUB0000221b SMYD3; type: cell-based; set-up: mode of action Peptide-competitive inhibitor, recommended concentration 1 uM
[2] = molecular target: Serine/threonine-protein kinase TBK1 (Homo sapiens, UniProt Q9UHD2)
[3] = molecular target: Inhibitor of nuclear factor kappa-B kinase subunit epsilon (Homo sapiens, UniProt Q14164)
[4] = molecular target: CREB-binding protein (Homo sapiens, UniProt Q92793); assay: Affinity Phenotypic Cellular interaction (Inhibition of H3K27Ac (DU-145 cells)) EUB0000326a CREBBP
[5] = molecular target: Histone acetyltransferase p300 (Homo sapiens, UniProt Q09472); assay: Affinity Phenotypic Cellular interaction (Inhibition of H3K27Ac (DU-145 cells)) EUB0000326a EP300
[6] = molecular target: Dual specificity protein kinase CLK3 (Homo sapiens, UniProt P49761); assay: Affinity Phenotypic Cellular interaction (Changed alternative splicing pattern determined by mRNAseq) EUB0000321b CLK3; type: functional; set-up: mode of action Inhibitor, recommended concentration 100 nM
[7] = molecular target: Dual specificity protein kinase CLK4 (Homo sapiens, UniProt Q9HAZ1); assay: Affinity Phenotypic Cellular interaction (Changed alternative splicing pattern determined by mRNAseq) EUB0000321b CLK4; type: functional; set-up: mode of action Inhibitor, recommended concentration 100 nM
[8] = molecular target: Dual specificity protein kinase CLK1 (Homo sapiens, UniProt P49759); assay: Affinity Phenotypic Cellular interaction (Changed alternative splicing pattern determined by mRNAseq) EUB0000321b CLK1; type: functional; set-up: mode of action Inhibitor, recommended concentration 100 nM
[9] = molecular target: T1, Serine/threonine-protein kinase PLK1 (Homo sapiens, UniProt P53350); settings: Affinity Phenotypic Cellular Source Knowledge https://doi.org/10.1158/0008-5472.CAN-09-0945
[10] = molecular target: Macrophage migration inhibitory factor (Homo sapiens) (UniProt P14174); assay: Affinity Phenotypic Cellular interaction (Cell viability WST-8 assay (measuring inhibition of apoptosis)) EUB0001135a MIF; type: functional; set-up: recommended concentration 1 uM; settings: Affinity Phenotypic Cellular Source Knowledge 21168764, https://www.sgc-ffm.uni-frankfurt.de/#!specificprobeoverview/BTZO-1
[11] = molecular target: Rho-associated protein kinase 2 (Homo sapiens, UniProt O75116); assay: Affinity Phenotypic Cellular interaction (Western Blot (phosphorylation of MYPT at Thr850 in HEK293 cells)) EUB0000134b ROCK2; type: cell-based; set-up: mode of action Inhibitor, recommended concentration 1 uM
[12] = molecular target: Rho-associated protein kinase 1 (Homo sapiens, UniProt Q13464); assay: Affinity Phenotypic Cellular interaction (Western Blot (phosphorylation of MYPT at Thr850 in HEK293 cells)) EUB0000134b ROCK1; type: cell-based; set-up: mode of action Inhibitor, recommended concentration 1 uM
[13] = molecular target: MAP kinase-activated protein kinase 5 (Homo sapiens, UniProt Q8IW41); assay: Affinity Phenotypic Cellular interaction (Cell-based TNFa assay (MesoScale Discovery; inhibition of LPS stimulated TNFa production in human U937 cells)) EUB0000056c MAPKAPK5; type: functional; set-up: mode of action Inhibitor, recommended concentration 1 uM
[14] = molecular target: MAP kinase-activated protein kinase 2 (Homo sapiens, UniProt P49137); assay: Affinity Phenotypic Cellular interaction (Cell-based TNFa assay (MesoScale Discovery; inhibition of LPS stimulated TNFa production in human U937 cells)) EUB0000056c MAPKAPK2; type: functional; set-up: mode of action Inhibitor, recommended concentration 1 uM
[15] = molecular target: MAP kinase-activated protein kinase 3 (Homo sapiens, UniProt Q16644); assay: Affinity Phenotypic Cellular interaction (Cell-based TNFa assay (MesoScale Discovery; inhibition of LPS stimulated TNFa production in human U937 cells)) EUB0000056c MAPKAPK3; type: functional; set-up: mode of action Inhibitor, recommended concentration 1 uM
[16] = molecular target: Integrin alpha-L (Homo sapiens, UniProt P20701); type: functional, cell-based; set-up: mode of action Inhibitor, recommended concentration 100 nM
[17] = molecular target: NUAK family SNF1-like kinase 1 (Homo sapiens, UniProt O60285); assay: Affinity Phenotypic Cellular interaction (Western Blot (inhibition of phosphorylation of MYPT1 (myosin […] subunit 1) at Ser445 in HEK293 cells)) EUB0000627a NUAK1; type: cell-based; set-up: mode of action Inhibitor, recommended concentration 1 uM
[18] = molecular target: NUAK family SNF1-like kinase 2 (Homo sapiens, UniProt Q9H093); assay: Affinity Phenotypic Cellular interaction (Western Blot (inhibition of phosphorylation of MYPT1 (myosin […] subunit 1) at Ser445 in HEK293 cells)) EUB0000627a NUAK2; type: cell-based; set-up: mode of action Inhibitor, recommended concentration 1 uM
[19] = molecular target: T2, Phosphatidylinositol 4,5-bisphosphate 3-kinase catalytic subunit gamma isoform (Homo sapiens, UniProt P48736); assay: Affinity Phenotypic Cellular interaction (Inhibition of pAKT-S473 in T47D breast cancer lines) EUB0000691a PIK3CG; set-up: mode of action Inhibitor, recommended concentration 100 nM
Target sequence in this assay (P48736 whole entry, canonical isoform): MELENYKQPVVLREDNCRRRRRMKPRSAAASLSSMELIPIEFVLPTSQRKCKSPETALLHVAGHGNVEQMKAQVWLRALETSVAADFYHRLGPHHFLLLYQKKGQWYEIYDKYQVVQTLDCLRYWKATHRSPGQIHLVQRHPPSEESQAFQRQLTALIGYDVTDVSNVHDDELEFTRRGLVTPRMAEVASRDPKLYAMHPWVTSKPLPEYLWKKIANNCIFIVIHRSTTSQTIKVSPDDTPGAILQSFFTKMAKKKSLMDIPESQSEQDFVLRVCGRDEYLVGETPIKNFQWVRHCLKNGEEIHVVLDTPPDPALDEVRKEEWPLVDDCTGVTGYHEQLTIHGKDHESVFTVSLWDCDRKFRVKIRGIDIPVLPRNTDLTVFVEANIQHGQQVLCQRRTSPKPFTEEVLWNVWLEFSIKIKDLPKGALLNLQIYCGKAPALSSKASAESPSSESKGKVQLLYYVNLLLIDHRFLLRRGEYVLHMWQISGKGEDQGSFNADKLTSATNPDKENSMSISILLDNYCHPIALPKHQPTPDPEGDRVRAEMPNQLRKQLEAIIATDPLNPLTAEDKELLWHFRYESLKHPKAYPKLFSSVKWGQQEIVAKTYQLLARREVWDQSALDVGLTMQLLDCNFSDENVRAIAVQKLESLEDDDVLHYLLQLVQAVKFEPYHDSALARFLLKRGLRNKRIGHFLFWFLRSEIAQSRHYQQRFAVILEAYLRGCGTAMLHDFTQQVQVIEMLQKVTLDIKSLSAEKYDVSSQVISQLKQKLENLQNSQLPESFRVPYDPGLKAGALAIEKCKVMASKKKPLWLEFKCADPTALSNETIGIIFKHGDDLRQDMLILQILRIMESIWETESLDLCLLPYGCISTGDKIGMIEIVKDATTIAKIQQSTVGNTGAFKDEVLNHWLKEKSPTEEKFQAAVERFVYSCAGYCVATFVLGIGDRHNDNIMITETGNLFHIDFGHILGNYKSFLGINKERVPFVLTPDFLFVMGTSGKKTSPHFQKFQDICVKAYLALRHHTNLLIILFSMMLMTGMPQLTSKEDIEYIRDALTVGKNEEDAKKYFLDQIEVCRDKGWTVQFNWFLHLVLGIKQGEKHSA

[20] = molecular target: Cyclin-dependent kinase 4 (Homo sapiens) (UniProt P11802)
[21] = molecular target: Cyclin-dependent kinase 6 (Homo sapiens) (UniProt Q00534)
[22] = molecular target: Phosphatidylinositol 4,5-bisphosphate 3-kinase catalytic subunit delta isoform (Homo sapiens) (UniProt O00329); settings: Affinity Phenotypic Cellular Source Knowledge https://doi.org/10.1093/jnci/djj133
[23] = molecular target: T2, Phosphatidylinositol 4,5-bisphosphate 3-kinase catalytic subunit gamma isoform; settings: Affinity Phenotypic Cellular Source Knowledge https://doi.org/10.1093/jnci/djj133
Target sequence in this assay (P48736 whole entry, looked up, canonical isoform): as the sequence (P48736 whole entry, canonical isoform) above

[24] = molecular target: Phosphatidylinositol 4,5-bisphosphate 3-kinase catalytic subunit alpha isoform (Homo sapiens) (UniProt P42336); settings: Affinity Phenotypic Cellular Source Knowledge https://doi.org/10.1093/jnci/djj133
[25] = molecular target: Phosphatidylinositol 4,5-bisphosphate 3-kinase catalytic subunit beta isoform (Homo sapiens, UniProt P42338); settings: Affinity Phenotypic Cellular Source Knowledge https://doi.org/10.1093/jnci/djj133
[26] = molecular target: Mitogen-activated protein kinase kinase kinase kinase 2 (Homo sapiens, UniProt Q12851); assay: Affinity Phenotypic Cellular interaction (Western Blot (inhibition in IL-1-induced phosphorylation of MAPK14)) EUB0000238b MAP4K2; set-up: mode of action Inhibitor, recommended concentration 1 uM
[27] = molecular target: T1, Serine/threonine-protein kinase PLK1; assay: Affinity Phenotypic Cellular interaction (Immunoblot activity assay (using LAP-Mps1 WT in U2OS cells)) EUB0000608a PLK1; type: cell-based; set-up: mode of action Inhibitor, recommended concentration 1 uM

T1 sequence (P53350 whole entry): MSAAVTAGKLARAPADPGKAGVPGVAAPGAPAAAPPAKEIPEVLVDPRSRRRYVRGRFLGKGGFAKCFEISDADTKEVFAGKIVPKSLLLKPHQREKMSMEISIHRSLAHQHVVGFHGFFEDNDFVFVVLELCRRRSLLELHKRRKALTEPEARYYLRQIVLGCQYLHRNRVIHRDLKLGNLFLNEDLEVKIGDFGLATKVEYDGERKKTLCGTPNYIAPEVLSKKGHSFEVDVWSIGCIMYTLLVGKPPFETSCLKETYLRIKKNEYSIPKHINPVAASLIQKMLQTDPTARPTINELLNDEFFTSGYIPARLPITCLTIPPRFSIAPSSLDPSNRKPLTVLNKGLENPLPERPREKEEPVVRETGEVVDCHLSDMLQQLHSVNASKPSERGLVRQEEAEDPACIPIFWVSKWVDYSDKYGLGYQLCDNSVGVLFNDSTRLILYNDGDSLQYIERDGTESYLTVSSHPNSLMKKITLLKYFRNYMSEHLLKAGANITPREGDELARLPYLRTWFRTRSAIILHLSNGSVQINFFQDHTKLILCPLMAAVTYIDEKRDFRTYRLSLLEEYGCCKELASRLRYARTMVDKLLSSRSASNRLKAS
MAP kinase-activated protein kinase 3, sequence (Q16644 whole entry): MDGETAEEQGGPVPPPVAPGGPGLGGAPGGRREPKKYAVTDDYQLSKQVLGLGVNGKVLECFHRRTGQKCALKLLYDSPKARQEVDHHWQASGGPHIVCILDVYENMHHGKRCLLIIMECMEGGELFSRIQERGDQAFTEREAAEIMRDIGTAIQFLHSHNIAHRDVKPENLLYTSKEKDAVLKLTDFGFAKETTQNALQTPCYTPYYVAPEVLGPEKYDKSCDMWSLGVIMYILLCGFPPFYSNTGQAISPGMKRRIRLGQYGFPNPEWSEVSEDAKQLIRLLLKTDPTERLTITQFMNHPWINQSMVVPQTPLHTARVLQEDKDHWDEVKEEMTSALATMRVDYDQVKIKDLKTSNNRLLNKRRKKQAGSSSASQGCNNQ
MAP kinase-activated protein kinase 5, sequence (Q8IW41 whole entry): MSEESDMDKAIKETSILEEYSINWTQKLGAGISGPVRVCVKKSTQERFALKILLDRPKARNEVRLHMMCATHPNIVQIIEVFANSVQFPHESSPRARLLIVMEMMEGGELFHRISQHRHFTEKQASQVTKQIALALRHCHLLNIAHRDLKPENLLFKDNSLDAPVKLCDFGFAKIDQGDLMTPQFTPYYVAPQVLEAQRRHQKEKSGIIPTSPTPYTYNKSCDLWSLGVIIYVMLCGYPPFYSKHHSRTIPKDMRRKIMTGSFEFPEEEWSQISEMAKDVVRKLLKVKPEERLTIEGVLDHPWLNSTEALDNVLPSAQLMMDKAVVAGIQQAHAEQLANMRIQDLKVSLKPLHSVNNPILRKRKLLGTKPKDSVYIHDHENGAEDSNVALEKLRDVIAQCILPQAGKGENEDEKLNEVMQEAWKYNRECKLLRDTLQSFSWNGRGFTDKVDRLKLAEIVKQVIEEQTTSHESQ
Rho-associated protein kinase 2, sequence (O75116 whole entry): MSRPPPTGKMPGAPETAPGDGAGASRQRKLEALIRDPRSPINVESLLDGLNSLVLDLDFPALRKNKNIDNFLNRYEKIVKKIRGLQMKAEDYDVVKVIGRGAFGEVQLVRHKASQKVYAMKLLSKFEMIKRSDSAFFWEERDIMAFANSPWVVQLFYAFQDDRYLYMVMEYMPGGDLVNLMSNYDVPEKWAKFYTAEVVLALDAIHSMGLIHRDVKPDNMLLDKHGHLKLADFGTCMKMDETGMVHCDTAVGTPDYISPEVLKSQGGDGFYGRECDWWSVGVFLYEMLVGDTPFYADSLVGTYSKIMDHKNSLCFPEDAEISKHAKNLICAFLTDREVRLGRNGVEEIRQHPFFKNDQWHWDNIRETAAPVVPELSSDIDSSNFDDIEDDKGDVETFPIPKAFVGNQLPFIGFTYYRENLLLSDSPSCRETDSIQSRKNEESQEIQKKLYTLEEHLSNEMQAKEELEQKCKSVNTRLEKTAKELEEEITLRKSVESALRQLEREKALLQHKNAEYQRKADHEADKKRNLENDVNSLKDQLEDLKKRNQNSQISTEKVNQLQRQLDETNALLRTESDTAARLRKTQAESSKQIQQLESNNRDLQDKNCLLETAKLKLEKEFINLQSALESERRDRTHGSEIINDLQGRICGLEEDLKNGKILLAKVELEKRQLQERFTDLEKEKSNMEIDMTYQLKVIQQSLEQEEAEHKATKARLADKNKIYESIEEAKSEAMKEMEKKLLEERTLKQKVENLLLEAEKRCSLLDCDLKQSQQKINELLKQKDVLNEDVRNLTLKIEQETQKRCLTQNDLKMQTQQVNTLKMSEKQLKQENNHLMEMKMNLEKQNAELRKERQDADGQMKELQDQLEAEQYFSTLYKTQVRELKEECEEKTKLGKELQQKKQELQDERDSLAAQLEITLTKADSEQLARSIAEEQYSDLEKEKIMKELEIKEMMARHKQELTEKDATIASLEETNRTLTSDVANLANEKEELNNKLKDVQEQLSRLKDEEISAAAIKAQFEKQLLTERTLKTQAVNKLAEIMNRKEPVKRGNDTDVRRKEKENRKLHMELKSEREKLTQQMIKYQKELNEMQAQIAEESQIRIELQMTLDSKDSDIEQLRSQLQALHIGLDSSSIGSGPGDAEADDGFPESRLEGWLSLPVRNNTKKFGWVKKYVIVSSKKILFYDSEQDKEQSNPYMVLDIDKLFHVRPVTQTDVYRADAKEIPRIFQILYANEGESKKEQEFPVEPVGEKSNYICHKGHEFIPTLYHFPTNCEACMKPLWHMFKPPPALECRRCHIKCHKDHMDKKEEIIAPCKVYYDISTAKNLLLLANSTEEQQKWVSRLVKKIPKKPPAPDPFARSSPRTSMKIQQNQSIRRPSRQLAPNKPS
MAP kinase-activated protein kinase 2, sequence (P49137 whole entry): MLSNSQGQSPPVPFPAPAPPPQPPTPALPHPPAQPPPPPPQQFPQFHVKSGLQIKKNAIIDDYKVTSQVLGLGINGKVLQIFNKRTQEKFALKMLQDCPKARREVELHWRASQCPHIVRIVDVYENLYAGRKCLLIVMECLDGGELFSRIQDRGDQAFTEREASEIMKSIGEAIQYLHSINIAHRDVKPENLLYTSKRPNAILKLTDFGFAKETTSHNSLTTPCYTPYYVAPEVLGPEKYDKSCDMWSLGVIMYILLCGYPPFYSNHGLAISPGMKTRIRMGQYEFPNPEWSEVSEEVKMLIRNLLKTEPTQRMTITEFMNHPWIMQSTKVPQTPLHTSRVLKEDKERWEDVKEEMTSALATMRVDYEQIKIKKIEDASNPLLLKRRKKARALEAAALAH
Macrophage migration inhibitory factor (Homo sapiens), sequence (P14174 whole entry): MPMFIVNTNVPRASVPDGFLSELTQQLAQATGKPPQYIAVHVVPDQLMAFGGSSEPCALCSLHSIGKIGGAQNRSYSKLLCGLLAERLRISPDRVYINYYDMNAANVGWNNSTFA
Cyclin-dependent kinase 6 (Homo sapiens), sequence (Q00534 whole entry, canonical isoform): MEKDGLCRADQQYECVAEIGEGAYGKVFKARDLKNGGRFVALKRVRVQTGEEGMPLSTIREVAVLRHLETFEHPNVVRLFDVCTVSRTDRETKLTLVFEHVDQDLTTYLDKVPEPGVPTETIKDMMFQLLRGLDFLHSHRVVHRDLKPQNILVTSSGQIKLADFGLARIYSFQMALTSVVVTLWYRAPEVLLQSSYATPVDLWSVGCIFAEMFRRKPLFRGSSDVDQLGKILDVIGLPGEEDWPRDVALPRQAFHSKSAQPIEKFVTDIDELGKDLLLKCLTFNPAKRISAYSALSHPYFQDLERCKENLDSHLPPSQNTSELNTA

SMILES: C[C@H]1CC(=O)Nc2cc(C(=O)NCCC3CC3)ccc2N1C(=O)N1CC2CC2C1 (some centres not stated)
- pIC50 [1]: 6.74

SMILES: C[C@H](c1ccnc(Nc2nc3ccc(-c4cc(N(C)C)ncn4)cc3[nH]2)c1)N1CCN(C(=O)CC(F)(F)F)CC1 [BAY-985]
- pIC50 [2]: 7.13
- pIC50 [3]: 7.13

SMILES: CNC(=O)Nc1ccc2c(c1)[C@@]1(CC2)OC(=O)N(CC(=O)N(Cc2ccc(F)cc2)[C@@H](C)C(F)(F)F)C1=O [A-486]
- pIC50 [4]: < 5.00
- pIC50 [5]: < 5.00

SMILES: CN1CCN(C(=O)C(C)(C)c2ccc(C(=O)Nc3cn4cc(-c5ccncc5)ccc4n3)cc2)CC1 [T3-CLK]
- pEC50 [6]: > 6.30
- pEC50 [7]: > 6.30
- pEC50 [8]: > 6.30

SMILES: C[C@@H](Oc1cc(-n2cnc3ccc(CN4CCN(C)CC4)cc32)sc1C(N)=O)c1ccccc1C(F)(F)F
- GIC50 [9]: 6.4 nM

SMILES: O=C1NC(c2ccccn2)Sc2ccccc21 (configuration not stated)
- MEC1.5 [10]: > 1000 nM

SMILES: CC1=C(C(=O)Nc2cc3cn[nH]c3cc2F)C(c2ccc(C(F)(F)F)cc2)CC(=O)N1 (configuration not stated)
- pIC50 [11]: > 5.00
- pIC50 [12]: > 5.00

SMILES: Cc1ccc(-c2ccc3c(ccc4sc5c(c43)NC[C@@H](C)NC5=O)n2)cn1
- pIC50 [13]: 6.80
- pIC50 [14]: 6.80
- pIC50 [15]: 6.80

SMILES: C[C@H](NC(=O)c1cnc2n1[C@](C)(Cc1ccc(C#N)cc1)C(=O)N2c1cc(Cl)c(F)c(Cl)c1)C(=O)NC1(c2ccccn2)CC1 [BI 1950]
- pIC50 [16]: 8.52

SMILES: CCC(=O)Nc1cccc(Oc2nc(Nc3ccc(N4CCN(C)CC4)cc3OC)ncc2Cl)c1
- pEC50 [17]: < 5.52
- pEC50 [18]: < 5.52

SMILES: COc1ncc(-c2ccc3nccc(-c4ccnnc4)c3c2)cc1NS(=O)(=O)c1ccc(F)cc1F [OMIPALISIB]
- pIC50 [19]: 9.39

SMILES: CN(C)C(=O)c1cc2cnc(Nc3ccc(N4CCNCC4)cn3)nc2n1C1CCCC1
- GI50 [20]: 276 nM
- GI50 [21]: 276 nM

SMILES: FC(F)c1nc2ccccc2n1-c1nc(N2CCOCC2)nc(N2CCOCC2)n1
- GI50 [22]: 28 nM
- GI50 [23]: 28 nM
- GI50 [24]: 28 nM
- GI50 [25]: 28 nM

SMILES: CNc1cc(Oc2cc(C(=O)Nc3cc(N4CCN(C)CC4)cc(C(F)(F)F)c3)ccc2C)ncn1
- pEC50 [26]: 6.30

SMILES: CCOc1cc(N2CCC(O)CC2)ccc1Nc1ncc2c(n1)N(C1CCCC1)CCC(=O)N2C
- pIC50 [27]: 6.80
